From patent US20050118226A1, “Methods for treating ACAT-related diseases” (priority 2003, published 2005)
“Also recorded” adds a separate entry of the source.

Key:
[1] = rat, in vivo; cited from earlier work
γ-secretase = assay: In vitro generation of APP intracellular domain (AICD), γ-secretase activity assay on CHO cell membrane fractions; format: biochemical, Chinese hamster; conditions: CHO cell (overexpressing APP) membrane fractions, increasing amounts of compound
Description: Membrane preparation and in vitro generation of AICD were performed as described (Gu et al., 2001; Kim et al., 2002). P2 membrane fractions were prepared from CHO cells overexpressing wild type APP and resuspended in Buffer H (20 mM HEPES, 150 mM NaCl, 10% glycerol, 5 mM EDTA, pH 7.4) with protease inhibitors. In vitro cleavage experiments were performed by incubating the membrane fractions at 0° C. or 37° C. for 1 hour with the indicated amounts of CP-113,818. As a negative control, a specific γ-secretase inhibitor, L-685,458, was added to one of the samples.

amyloid plaques = assay: Brain plaque load in hAPP mice (thioflavin S and 6E10 Aβ staining); format: in vivo, mouse
Description: For histomorphological analyses, 8 to 15 histological sections (10 μm) were prepared from one hemisphere of 12 animals (6 placebo, 6 CP-113,818; 3 male, 3 female per group). Number and surface area of amyloid plaques were evaluated in both cortex and hippocampus. 6E10 (Signet; 1:5000; monoclonal) as primary antibody, and Cy™3 fluorescent goat anti-mouse IgG as secondary antibody (Jackson Immuno Research) were used for Aβ staining. Sections of the same brains were also used for synaptophysin staining (Chemicon; 1:5000; monoclonal). Synaptophysin immunoreactive spots were counted by light microscopy in the hippocampal CA1 region. The estimation of immunohistochemical reactions was done by computer-assisted quantification (IMAGE PRO PLUS, Media Cybernetics).
Brain plaque load was evaluated by thioflavin S and immunohistochemical stainings (FIG. 3). Thioflavin S-positive plaques were barely detectable in the cortex of hAPP mice at 6.5 months of age and absent in CP-113,818-treated animals (FIG. 2A). […] Individual differences in amyloid load reflected the well-known variability in Aβ accumulation that has been previously observed in transgenic mice, specifically at early stages of pathology (Johnson-Wood et al., 1997; Kawarabayashi et al., 2001). Amyloid load in the cortex of female animals was two-fold higher than in males, in agreement with previous studies in other mouse models of AD (Callahan et al., 2001; Lee et al., 2002; Wang et al., 2003). The hippocampus, slower than the cortex in developing amyloid pathology in hAPP mice, contained significant numbers of Aβ deposits only in female, but not in male, animals (FIG. 3B and FIG. 4). […] Importantly, when the two genders were considered separately, plaque numbers were reduced to an equal extent in females and males, by 89%, p<0.00002, and 88%, p<0.0002, respectively (FIG. 3B). […] In females the decrease was from 0.45 to 0.04 percent plaque load (p<0.00002), while in males it was from 0.10 to 0.02 (p<0.00013; FIG. 4B). As mentioned above, amyloid load in the hippocampus of male animals was too low at this age for reliable assessment of changes caused by CP-113,818.

[2] = system: hAPP mice and non-transgenic littermates; assay: Morris water maze spatial learning and memory test; format: in vivo, mouse
Description: 53 days after the treatment, mice were trained in the Morris water maze (MWM) spatial navigation task in which a mouse swims to find a hidden platform, using visual cues. The task is based on the principle that rodents are highly motivated to escape from a water environment by the quickest, most direct route. This task is carried out in a circular pool (1 meter diameter) filled with water (22±1° C.) and virtually divided into four quadrants. A platform is placed in the southwest quadrant 1 cm beneath the surface of the water. The computer randomly changes the starting positions of an animal. On four consecutive days mice attend three trials per day (each lasting for a maximum of 60 seconds). Escape latency (time to find the hidden platform), and length of swimming path were measured. Significant differences of the behavioral results were calculated with the Mann Whitney U-test.
To analyze the effect of CP-113,818 treatment on cognitive function of hAPP mice, we performed Morris water maze spatial learning and memory tests on the animals. Since hAPP mice develop cognitive deficits starting at 6 months of age, the 6.5 month-old animals in our study were only expected to show slight deterioration due to Aβ accumulation, when compared to non-transgenic littermates. […] Clear impairment of cognitive function due to Aβ accumulation was only observed in female transgenic mice. […] This could have been due to a ceiling effect owing to maximum swimming speed. Compared to placebo, the improvement between day 1 and day 3 due to CP-113,818 treatment was significant (p<0.033). […] Although testing of more mice at an older age will be needed to further assess the effect of decreased amyloid pathology on spatial learning and memory, improved performance in a Morris water maze test correlated well with the highly significant decrease of overall plaque load and Aβ in CP-113,818-treated female animals.

Question: What does the source list for `CCCCCCCC[C@H](SCCCCCC)C(=O)Nc1c(SC)cc(C)nc1SC` [CP-113,818]?
Answer: tolerated dose [1]: 150 mg/kg per day; effect on γ-secretase activity (AICD generation) in vitro (γ-secretase): unaffected; also recorded: no direct effect; reduction of cortical plaque number, females (amyloid plaques; female hAPP mice, cortex, 6E10 staining, 57 days): 89%; cortical plaque numbers / Aβ staining at beginning versus end of treatment (amyloid plaques; female hAPP mice, cortex, day 0 without vs day 57 with treatment): remarkably similar; percent plaque load in cortex after treatment, females (amyloid plaques; female hAPP mice, cortex, placebo 0.45): 0.04%; decrease of plaque number in the hippocampus of female mice (amyloid plaques; female hAPP mice, hippocampus, 57 days): 99%; percent plaque load in hippocampus after treatment, females (amyloid plaques; female hAPP mice, hippocampus, placebo 0.295): 0.09%; thioflavin S-positive plaques in the cortex (amyloid plaques; hAPP mice at 6.5 months of age): absent; reduction of cortical plaque number (amyloid plaques; hAPP mice, all animals, cortex, 6E10 staining, 57 days): 88%; decrease of plaque burden (percent of cortex covered by plaques) (amyloid plaques; hAPP mice, all animals, cortex, 57 days): 90%; reduction of cortical plaque number, males (amyloid plaques; male hAPP mice, cortex, 6E10 staining, 57 days): 88%; percent plaque load in cortex after treatment, males (amyloid plaques; male hAPP mice, cortex, placebo 0.10): 0.02%; spatial learning of all hAPP mice taken together ([2]; all hAPP mice regardless of gender): trend toward acquiring the task quickly; spatial learning performance of female hAPP mice (swimming path, escape latency) ([2]; female hAPP mice, days 54-57 of treatment): reversed the observed impairment; also recorded: improved this performance; spatial learning performance of male hAPP mice ([2]; male hAPP mice): did not affect the performance; swimming path of male non-transgenic animals ([2]; male non-transgenic mice, day four, not escape latency): performed better than the placebo-treated cohort; also recorded: slightly improved; spatial performance of non-transgenic female mice ([2]; non-transgenic female mice): did not affect spatial performance
